Measured values published in US12685732B2, “Composition for improving, preventing or treating muscular disorders including sulfonamide-based compounds” (The Industry & Academic Cooperation in Chungnam National …, priority 2022, dated 2026).

What was measured:
[1] = Body weight in CTX-induced sarcopenia mouse model; assay type: in vivo; conditions: oral 50, 100, 500 mg/kg once/day 10 days, 14 days, except decrease in all groups on day 10 without diet supply
Experimental: (§1) Specifically, the Rota Rod was measured before CTX injection, and after CTX was injected (day 0), the drug was orally administered once/day for 10 days, and on days 4, 9, and 14, the Rota Rod was measured, respectively.
For a total of 14 days, the body weights of the mice were measured, and any change in body weight was confirmed.
(§2) Specifically, the grip strength was measured before CTX injection, and after CTX was injected (day 0), the drug was orally administered once/day for 10 days, and on days 4, 9, and 14, the grip strength was measured, respectively.

[2] = tested on: CTX-induced sarcopenia mouse model; assay: Muscle regeneration by H&E staining in CTX-induced sarcopenia mouse model; assay type: in vivo; conditions: 4 μM oral, 24 h after CTX; tissue on days 3, 6, 10; vs non-administered control
Experimental: (§3) In order to construct a CTX-induced sarcopenia mouse model, cardiotoxin (LATOXAN, Portes-les-Valence, France) was dissolved at 1 mg/ml in PBS to make a high-concentration stock solution. To apply to the mice, the stock solution was diluted again in PBS at a final concentration of 0.03 mg/ml and used, and intramuscularly injected into both thigh muscles of the mouse using a 1 ml syringe (24 G) to construct a sarcopenia mouse model.
Specifically, for mouse muscle tissue immunostaining, the muscle tissues of a comparative group and a sulfamethazine-treated group were fixed in 4% paraformaldehyde, washed, and fixed in paraffin. Tissues were cut to a thickness of about […], fixed to a slide, and then stained using an antibody for each muscle type.

[3] = tested on: CTX-induced sarcopenia mouse model; assay: Muscle recovery by muscle type (myosin I, IIa, IIb antibody staining) in CTX-induced sarcopenia mouse model; assay type: in vivo; conditions: 4 μM oral
Experimental: as §3

[4] = tested on: C2C12-PHF20/YY1-promoter-GFP cell line; assay: HTS system: GFP (green luminescence) in PHF20-overexpressing myoblasts carrying YY1 promoter-GFP; assay type: cell-based, mouse; conditions: 1 nM, 10 nM, 100 nM, 1 μM or 10 μM
Text: C2C12 myoblasts, which were stable cells in which PHF20 was overexpressed, were transformed with a plasmid coexisting with a YY1 promoter and GFP, which inhibited muscle differentiation, to prepare a stable cell line. The degree of GFP signal suppression was quantified and measured, and the degree of muscle differentiation was used as a quantitative measurement index (FIG. 1).
Specifically, the C2C12-PHF20/YY1-promoter-GFP cell line according to Example 1 was dispensed in a 96-well plate at 0.5×10^5, cultured for 24 hours, and cells in a 70% confluent state were treated with 250 ng/ml of doxycycline for 24 hours, and then treated with each compound at a final concentration of 10 μM.
For fluorescence intensity, C2C12-PHF20/YY1-promoter-GFP cells were dispensed at 4×10^5 in a 6-well culture plate and cultured for 24 hours. […] Thereafter, the degree of green luminescence was confirmed using GloMax microplate readers explorer (Promega, Madison, Wisconsin, USA).

C57BL/6J mice [5] = assay: Single oral dose toxicity: blood liver, heart and kidney toxicity markers; conditions: single oral 100, 500, 1000 mg/kg; male and female; serum day 14
Experimental: 7-week-old male and female C57BL/6J mice with the body weight of 20±3 g were obtained from DooYeol Biotech (Seoul, South Korea). The mice were bred under constant room temperature and 12 h night/day cycle for 1 week before the experiment, and the mice were fed with a standard rodent diet and were freely taken with water.
The collected blood was left at room temperature for 1 hour to be coagulated, and the serum was isolated by operating a centrifuge (13,000 rpm) for 20 minutes. Blood analysis was performed by dividing liver toxicity, heart toxicity, and kidney toxicity, and the analysis was conducted by requesting DooYeol Biotech (Seoul, Korea).

C57BL/6J mice [6] = assay: Single oral dose toxicity: liver pathology by H&E staining; assay type: in vivo, mouse; conditions: single oral 100, 500, 1000 mg/kg; male and female; day 14
Experimental: As in Example 7-1, mice with single oral administration were dissected on day 14 after administration, and histochemical toxicity was evaluated. The pathology of the liver was observed through H&E staining on the dissected liver tissue.

[7] = tested on: CTX-induced sarcopenia mouse model; assay: Grip strength recovery in CTX-induced sarcopenia mouse model; assay type: in vivo; conditions: oral 50, 100, 500 mg/kg once/day 10 days, days 4, 9, 14
Experimental: as §2

C57BL/6J mice [8] = assay: Single oral dose toxicity: tissue weights at autopsy; assay type: in vivo, mouse; conditions: single oral 100, 500, 1000 mg/kg; male and female; day 14
Experimental: The body weights were measured before administration, and on 1 day, 3 days, 7 days, and 14 days after administration, and an autopsy was performed on day 14.
In the present disclosure, a single oral dose toxicity test refers to a test that qualitatively and quantitatively examines toxicity in a short period of time when a test substance was administered to test animals in a single dose (including divided doses within 24 hours).

[9] = tested on: CTX-induced sarcopenia mouse model; assay: Rota Rod balance ability in CTX-induced sarcopenia mouse model; assay type: in vivo; conditions: oral 50, 100, 500 mg/kg once/day 10 days; days 4, 9, 14; vs (+)PBS group
Experimental: as §1

For sulfamethazine, the body weight ([1]; Rota Rod study) was “no change in body weight was observed”, the body weight ([1]; grip strength study) was “no change in body weight was observed” and the “degree of muscle differentiation / regeneration by H&E staining” value [2] was “the muscle was regenerated compared to the control group”. The “expression of myosin I” value ([3]; day 6) was “expression of blue-stained myosin I was increased”, the “muscle image by myosin type staining” value ([3]; day 10) was “recovered similarly to that of a normal control group on day 0” and the “expression of myosin IIa and myosin IIb” value ([3]; vs control group) was “increase in expressions of green myosin IIa and red myosin IIb”. For the same substance, the “intensity of green fluorescence by concentration” value [4] was “the higher the treated concentration of sulfamethazine, the weaker the intensity of fluorescence”, the “blood liver toxicity, heart toxicity and kidney toxicity markers” value (C57BL/6J mice [5]) was “no specific phenomena related to liver toxicity, heart toxicity, and kidney toxicity” and the “liver pathology (H&E)” value (C57BL/6J mice [6]) was “no specific pathological findings were observed”. For the same substance, the “grip strength, all four paws” value [7] was “grip strength was increased in a sulfamethazine concentration-dependent manner”, the “grip strength, hind legs (2 paws)” value ([7]; vs (+)PBS group) was “grip strength of mice increased as the dose of sulfamethazine increased” and the tissue weight (C57BL/6J mice [8]) was “no singularity in tissue weight”. The “balance ability of the Rota Rod” value [9] was “the higher the dose of sulfamethazine, the higher the balance ability of the Rota Rod”.
